Laboratory results from PubChem BioAssay (NCI).
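Each compound was tested at five concentrations against cells in 96-well plates for 48 hours. GI50: concentration for 50% inhibition of growth. At the TGI there is no net growth.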

Assays:
Assay in all cases: growth of human tumour cells (NCI), 48 h
[1] = tested on: 786-0 renal
[2] = tested on: COLO 205 colon
[3] = tested on: HCT-15 colon
[4] = tested on: HL-60(TB) leukemia
[5] = tested on: LOX IMVI melanoma
[6] = tested on: NCI-H460 lung
[7] = tested on: RPMI-8226 leukemia
[8] = tested on: SF-295 CNS
[9] = tested on: SNB-19 CNS
[10] = tested on: A549 NSCLC

SMILES	TGI [1] [µM]	TGI [2] [µM]	TGI [3] [µM]	TGI [4] [µM]	TGI [5] [µM]	TGI [6] [µM]	TGI [7] [µM]	TGI [8] [µM]	TGI [9] [µM]	TGI [10] [µM]	GI50 [1] [µM]	GI50 [10] [µM]	GI50 [2] [µM]	GI50 [3] [µM]	GI50 [5] [µM]	GI50 [6] [µM]	GI50 [7] [µM]	GI50 [8] [µM]	GI50 [9] [µM]	GI50 [4] [µM]
CC1OC(OC2CCC3(C=O)C4CCC5(C)C(C6=CC(=O)OC6)CCC5(O)C4CCC3(O)C2)C(O)C(O)C1O (configuration not stated)	3.2e-05	0.0025	9.68e-05	0.000107	6.73e-05	3.81e-05	0.000124	6.69e-05	0.0657											
O=S(=O)(c1ccc(O)c(C=Nc2ccc(Cl)cc2)c1)c1ccc(O)c(C=Nc2ccc(Cl)cc2)c1	> 100	> 100		> 100	> 100	> 100	> 100	> 100	> 100	> 100										
Cc1cc(Cl)cc2c1NC(=O)C2=O (tested in a mixture with another compound)	> 100	> 100	> 100		33.2	> 100		> 100	> 100	> 100										
CCN(CC)CCN(C(=O)C(C)(C)C)c1ccccc1N	> 100		> 100	> 100		> 100	> 100	> 100	> 100	> 100										
O=C(Cc1csc2nc(-c3ccc(Br)cc3)cn12)N/N=C/c1ccc(O)cc1	89	> 100	61.5		26.1	> 100	40.2	41.7	> 100	33.7	26.1	10.6	43.3	17.9	11.1	56.9	4.29	12	57.5	
N=C1C=C(N)C(=O)c2[nH]c(=O)ccc21	3.48	3.14	4.06	4.87	3.69	6.95		31.2	3.86	4.99										
C/C=C1\C(=O)OC2CCN3CCC(COC(=O)C(C)(O)C(C)C1O)C23 (configuration not stated)	> 100	> 100	> 100	> 100	> 100	> 100		> 100	> 100	> 100										
COc1nc(NC2OC(COC(C)=O)C(OC(C)=O)C(OC(C)=O)C2OC(C)=O)c(-c2csc(N)n2)c(=O)n1C (configuration not stated)	54.6	> 100	> 100		> 100	> 100	> 100	> 100	> 100	> 100										
CSC1=NCC2(S1)c1ccccc1N(C(=O)OC(C)(C)C)C2N1CCCCC1 (configuration not stated)	> 100			> 100		> 100	> 100			> 100	16.2	> 100				69.6	> 100			63.7
CC1(C)CC[C@]2(C(N)=O)CC[C@]3(C)C(=CC[C@@H]4[C@@]5(C)C/C(=C/c6ccncc6)C(=O)C(C)(C)[C@@H]5CC[C@]43C)[C@@H]2C1	7.62		3.46	4.59			4.44	3.42	3.24	8.22	2.25	2.35		1.69			1.73	1.67	1.59	1.98
C[C@]12CC[C@H](OC3CCCCO3)CC1=CC[C@@H]1C2CC[C@]2(C)/C(=N/O)CCC12 (some centres not stated)	55.8		44.5		27.5	62.1	40	34.9	67.1	34.9										
CCOC(=O)C1COc2cc(-c3cc(=O)c4ccccc4o3)ccc2O1 (configuration not stated)	> 100	> 100			> 100	> 100		> 100	> 100	> 100										
C/C(CC(=O)N(C(C)C)C(C)C)=N\NC(=O)c1ccncc1	> 100	> 100	> 100	> 100	> 100		> 100	> 100	> 100	> 100										
COC(OC)c1cc2c(cc1C(=O)[C@@]13CCC[C@@H]1NC(=O)O3)OCO2	> 100			> 100		> 100		> 100	> 100											
CCOc1cc(-c2ccc[nH]2)[nH]c1/C=C1\N=C(C)C(C(=O)OC)=C1C	0.259	0.304	0.0705	1.69	0.0381	1.32	0.0898		2.91	0.58	0.0329	0.0531	0.031	0.0148	0.0102	0.0256	0.0216		0.239	0.0235
O=c1cc(-c2ccccn2)[nH]c2ccc(Cl)cc12	> 100	> 100		> 100	> 100	> 100	> 100	> 100	> 100									51.5		
O=C(Nc1cccc(NC(=O)c2cc(=O)c3ccccc3o2)n1)c1cc(=O)c2ccccc2o1	> 100	> 100	> 100	> 100	> 100	> 100	81.3		> 100	> 100										
N#CC1C=Cc2ccccc2N1C(=O)Oc1ccccc1 (configuration not stated)	> 100	> 100	> 100	48.6	> 100	> 100	61.3		> 100	> 100										
CC(C)C(=O)Oc1cc2c(=O)oc3c(OC(=O)C(C)C)c(OC(=O)C(C)C)cc4c(=O)oc(c1OC(=O)C(C)C)c2c34	> 100	> 100	> 100		> 100	> 100	> 100	> 100	> 100	> 100										
Oc1[nH]c2cc(Cl)ccc2c1/C=c1/ccc2c(c1)N=C(c1cc(F)cc(F)c1)N=2	12.8	5.29	14.7		15.2	6.77	6.28	2.84	26.2	5.44	3.31	1.64	2.24	3.37	2.22	1.64	2.38	0.509	6.22	
Cc1cc([N+](=O)[O-])c(C)c(Br)c1C	> 100	> 100	> 100			> 100	> 100	> 100	> 100	> 100										
